Laboratory results: patent US9073876B2, “Flap modulators” (JANSSEN PHARMACEUTICA NV, priority 2013, dated 2015)
Counter-ions that a name gives are not always drawn.

Tests used:
human FLAP = human FLAP (Homo sapiens (Human), UniProt P20292); assay: FLAP binding assay (HTRF); conditions: human FLAP-containing membranes, HTRF format; average of two assay plates, duplicates; read-out: FLAP Binding wild type HTRF Ki
How it was run: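 Read-out is the HTRF ratio. Each reported figure averages two assay plates on which samples were tested in duplicate.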

[1] = system: leukotriene pathway in human whole blood (LTB4 levels); assay: Human whole blood assay (LTB4); format: cell-based; conditions: human whole blood diluted 1:1 in RPMI, stimulated with calcium ionophore A23187; single replicate
How it was run: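 Blood (heparin) diluted 1:1 RPMI; compound pre-incubation 15 min, 37° Celsius; A23187 7 μg/mL, 30 min, 37° Celsius; plasma LTB4 by commercial kit. IC50 via 4-parameter equation.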

Chain of human FLAP (P20292 whole entry): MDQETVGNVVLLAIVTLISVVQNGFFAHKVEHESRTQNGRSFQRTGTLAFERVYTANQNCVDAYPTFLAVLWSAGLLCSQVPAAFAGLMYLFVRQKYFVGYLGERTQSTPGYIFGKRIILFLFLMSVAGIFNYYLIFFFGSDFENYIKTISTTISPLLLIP

| SMILES | Ki (human FLAP) [nM] | IC50 [1] [nM] |
| --- | --- | --- |
| COCc1cc(Oc2c(C3CCC3)ccc(-c3cnc(N)nc3)c2F)nc(N)n1 [Example 162, 4-[3-(2-Aminopyrimidin-5-yl)-6-cyclobutyl-2-fluorophenoxy]-6-(methoxymethyl)pyrimidin-2-amine] | 7.2 | 124 |
| N#Cc1cc(Oc2c(C3CCC3)ccc(-c3cnc(N)cn3)c2F)ccn1 [Example 109, 4-[3-(5-Aminopyrazin-2-yl)-6-cyclobutyl-2-fluorophenoxy]pyridine-2-carbonitrile] | 8.9 | 308 |
| Nc1ccc(-c2ccc(C3CCC3)c(OCc3ccc(C(=O)O)cc3)c2F)cn1 [Example 181, 4-((3-(6-Aminopyridin-3-yl)-6-cyclobutyl-2-fluorophenoxy)methyl)benzoic acid] | 41 | 10000 |
| Nc1cnc(-c2ccc(C3CCC3)c(OCC(O)Cn3nccn3)c2F)cn1 (racemic) [Example 64, racemic 1-(3-(5-Aminopyrazin-2-yl)-6-cyclobutyl-2-fluorophenoxy)-3-(2H-1,2,3-triazol-2-yl)propan-2-ol] | 86 | 275 |
| CC(C)c1cc(Oc2c(C3CCC3)ccc(-c3cnc(N)nc3)c2F)nc(N)n1 [Example 168, 4-(3-(2-aminopyrimidin-5-yl)-6-cyclobutyl-2-fluorophenoxy)-6-isopropylpyrimidin-2-amine] | 2.8 | 36.1 |
| Cc1ccnc(Oc2c(C3CCC3)ccc(-c3cnc(N)cn3)c2F)n1 [Example 69, 5-{4-cyclobutyl-2-fluoro-3-[(4-methylpyrimidin-2-yl)oxy]phenyl}pyrazin-2-amine] | 30 | 73.9 |
| CS(=O)(=O)c1ccc(Oc2c(C3CCC3)ccc(-c3cnc(N)cn3)c2F)c(Cl)c1 [Example 123, 5-{3-[2-Chloro-4-(methylsulfonyl)phenoxy]-4-cyclobutyl-2-fluorophenyl}pyrazin-2-amine] | 7 | 4480 |
| N#Cc1ccc(COc2c(C3CCC3)ccc(-c3cnc(N)cn3)c2F)cc1 [Example 15, 4-{[3-(5-Aminopyrazin-2-yl)-6-cyclobutyl-2-fluorophenoxy]methyl}benzonitrile] | 193 | 1240 |
| Nc1cnc(-c2ccc(C3CCC3)c(Oc3nccc(-c4cccs4)n3)c2F)cn1 [Example 91, 5-{4-Cyclobutyl-2-fluoro-3-[(4-thiophen-2-ylpyrimidin-2-yl)oxy]phenyl}pyrazin-2-amine] | 1 | 4.8 |
| Nc1cc(Oc2c(C3CCC3)ccc(-c3cnc(N)nc3)c2F)ncn1 [Example 164, 5-{3-[(6-Aminopyrimidin-4-yl)oxy]-4-cyclobutyl-2-fluorophenyl}pyrimidin-2-amine] | 36.8 | 118 |
| CS(=O)(=O)c1ccc(Oc2c(C3CCC3)ccc(-c3cnc(N)cn3)c2F)c(C#N)c1 [Example 132, 2-[3-(5-Aminopyrazin-2-yl)-6-cyclobutyl-2-fluorophenoxy]-5-(methylsulfonyl)benzonitrile] | 17 | 133 |
| CC(C)c1ccnc(Oc2c(C3CCC3)ccc(-c3cnc(N)nc3)c2F)n1 [Example 165, 5-(4-Cyclobutyl-2-fluoro-3-{[4-(1-methylethyl)pyrimidin-2-yl]oxy}phenyl)pyrimidin-2-amine] | 5.6 | 304 |
| Oc1c(C2CCC2)ccc(-c2cnc3[nH]ccc3c2)c1F [Example 220, 6-cyclobutyl-2-fluoro-3-(1H-pyrrolo[2,3-b]pyridin-5-yl)phenol] | 21.8 | 1120 |
| CN(C)S(=O)(=O)c1ccc(COc2c(C3CCC3)ccc(-c3cnc(N)cn3)c2F)cc1 [Example 25, 4-{[3-(5-Aminopyrazin-2-yl)-6-cyclobutyl-2-fluorophenoxy]methyl}-N,N-dimethylbenzenesulfonamide] | 12 | 576 |
| Nc1cnc(-c2ccc(C3CCC3)c(OCc3ccccc3)c2F)cn1 [Example 83, 5-[3-(Benzyloxy)-4-cyclobutyl-2-fluorophenyl]-pyrazin-2-amine] | 37 | 605 |
| Cc1cc(N)nc(Oc2c(C3CCC3)ccc(-c3cnc(N)cn3)c2F)n1 [Example 86, 2-[3-(5-Aminopyrazin-2-yl)-6-cyclobutyl-2-fluorophenoxy]-6-methylpyrimidin-4-amine] | 5 | 35.1 |
| Nc1cnc(-c2ccc(C3CCC3)c(OCc3cccc(F)c3)c2F)cn1 [Example 29, 5-{4-Cyclobutyl-2-fluoro-3-[(3-fluorobenzyl)oxy]phenyl}pyrazin-2-amine] | 224 | 1060 |
| CS(=O)(=O)c1ccc(COc2c(C3CCC3)ccc(-c3cnc(N)cn3)c2F)cc1 [Example 7, 5-(4-Cyclobutyl-2-fluoro-3-{[4-(methylsulfonyl)benzyl]oxy}phenyl)-pyrazin-2-amine] | 7 | 1400 |
| Nc1cnc(-c2ccc(C3CCC3)c(OCc3ccccc3-c3nnn[nH]3)c2F)cn1 [Example 22, 5-(4-Cyclobutyl-2-fluoro-3-{[2-(1H-tetrazol-5-yl)benzyl]oxy}phenyl)pyrazin-2-amine] | 6 | > 10000 |
| Fc1c(-c2cnc3[nH]ccc3n2)ccc(C2CCCC2)c1OCc1ccccc1 [Example 214, 2-[3-(Benzyloxy)-4-cyclopentyl-2-fluorophenyl]-5H-pyrrolo[2,3-b]pyrazine] | 30.8 | 1090 |
| COc1c(C2CCC2)ccc(-c2cnc3c(c2)OCCN3)c1F [Example 184, 7-(4-cyclobutyl-2-fluoro-3-methoxyphenyl)-3,4-dihydro-2H-pyrido[3,2-b][1,4]oxazine] | 14 | 831 |
| COc1cnc(Oc2c(C3CCC3)ccc(-c3cnc(N)cn3)c2F)nc1 [Example 94, 5-{4-Cyclobutyl-2-fluoro-3-[(5-methoxypyrimidin-2-yl)oxy]phenyl}pyrazin-2-amine] | 27 | 101 |
| Fc1c(-c2cnc3c(c2)OCCN3)ccc(C2CCC2)c1OCc1ccccc1 [Example 186, 7-[3-(Benzyloxy)-4-cyclobutyl-2-fluorophenyl]-3,4-dihydro-2H-pyrido[3,2-b][1,4]oxazine] | 20.5 | 531 |
| Nc1cnc(-c2ccc(C3CCC3)c(OCc3ccc(S(F)(F)(F)(F)F)cc3)c2F)cn1 [Example 79, 5-(4-Cyclobutyl-2-fluoro-3-{[4-(pentafluoro-lambda~6~- sulfanyl)benzyl]oxy}phenyl)pyrazin-2-amine] | 250 | 2230 |

The remaining lines, values ahead:

| Ki (human FLAP) [nM] | IC50 [1] [nM] | SMILES |
| --- | --- | --- |
| 208 | 1260 | CC(C)(C)OC(=O)N1CCCC(COc2c(C3CCC3)ccc(-c3cnc(N)cn3)c2F)C1 (stereo not drawn) [Example 249, tert-Butyl 3-((3-(5-aminopyrazin-2-yl)-6-cyclobutyl-2-fluorophenoxy)methyl)piperidine-1-carboxylate] |
| 116 | > 10000 | Nc1cnc(-c2ccc(CC3CCCCC3)c(Oc3ncccn3)c2F)cn1 [Example 321, 5-(4-(Cyclohexylmethyl)-2-fluoro-3-(pyrimidin-2-yloxy)phenyl)pyrazin-2-amine] |
| 9.7 | 39 | NC(=O)c1ncc(Oc2c(C3CCC3)ccc(-c3cnc(N)cn3)c2F)cn1 [Example 329, 5-(3-(5-Aminopyrazin-2-yl)-6-cyclobutyl-2-fluorophenoxy)pyrimidine-2-carboxamide] |
| 67.5 | 147 | Nc1cnc(-c2ccc(C3CC3)c(Oc3nccc(N)n3)c2F)cn1 [Example 279, 2-[3-(5-Aminopyrazin-2-yl)-6-cyclopropyl-2-fluorophenoxy]pyrimidin-4-amine] |
| 434 | 718 | Nc1cnc(-c2ccc(C3CCC3)c(OCC(O)CN3CCS(=O)(=O)CC3)c2F)cn1 (racemic) [Example 256, 4-(3-(3-(5-Aminopyrazin-2-yl)-6-cyclobutyl-2-fluorophenoxy)-2-hydroxypropyl)thiomorpholine 1,1-dioxide] |
| 16.5 | 1000 | Nc1cnc(-c2ccc(C3CCC3)c(OCCN3C(=O)c4ccccc4C3=O)c2F)cn1 [Example 293, 2-{2-[3-(5-aminopyrazin-2-yl)-6-cyclobutyl-2-fluorophenoxy]ethyl}-1H-isoindole-1,3(2H)-dione] |
| 58.1 | 103 | CC(C)c1ccc(-c2cnc(N)cn2)c(F)c1Oc1ncccn1 [Example 318, 5-[2-Fluoro-4-(1-methylethyl)-3-(pyrimidin-2-yloxy)phenyl]pyrazin-2-amine] |
| 337 | 284 | CCCc1ccc(-c2cnc(N)cn2)c(F)c1Oc1ncccn1 [Example 319, 5-[2-Fluoro-4-propyl-3-(pyrimidin-2-yloxy)phenyl]pyrazin-2-amine] |
| 19.6 | 160 | COC(=O)c1ccc2oc(COc3c(C4CCC4)ccc(-c4cnc(N)cn4)c3F)nc2c1 [Example 262, Methyl 2-{[3-(5-aminopyrazin-2-yl)-6-cyclobutyl-2-fluorophenoxy]methyl}-1,3-benzoxazole-5-carboxylate] |
| 3.7 | 12.9 | Cc1csc2ncnc(Oc3c(C4CCC4)ccc(-c4cnc(N)cn4)c3F)c12 [Example 331, 5-(4-Cyclobutyl-2-fluoro-3-((5-methylthieno[2,3-d]pyrimidin-4-yl)oxy)phenyl)pyrazin-2-amine] |
| 236 | 859 | CS(=O)(=O)NCCOc1c(C2CCC2)ccc(-c2cnc(N)cn2)c1F [Example 243, N-(2-(3-(5-Aminopyrazin-2-yl)-6-cyclobutyl-2-fluorophenoxy)-ethyl)-methane-sulfonamide] |
| 4.2 | 149 | Nc1cnc(-c2ccc(C3CCC3)c(OCCNc3cnccn3)c2F)cn1 [Example 295, 5-{4-Cyclobutyl-2-fluoro-3-[2-(pyrazin-2-ylamino)ethoxy]phenyl}pyrazin-2-amine trifluoroacetic acid salt] |
